Data: publication PMC7265429, “Characterization of a new small-molecule inhibitor of HDAC6 in glioblastoma” (Cell Death & Disease, 2020)

Tested on: GNS166 cells
Assay: Microarray whole-transcriptome gene expression analysis
Assay type: cell-based, human
Settings: DMSO vs SAHA, downregulated
Protocol: Whole-transcriptome analysis was performed from 300 ng of RNA using HuGene-2_0-st-v1 expression array (Affymetrix), which covers 48,226 transcripts. Raw data were first checked for quality purposes through the Affymetrix® Expression Console™ Software v1.4.1 and TAC software v4.0. Then, data were normalized using the Robust Multi-array Average (RMA) and analyzed by Limma tool. Probesets with FDR-corrected p-values smaller than 0.05 were selected. Functional enrichment on Gene Ontology (GO) biological processes was performed on a smaller subset of the differentially expressed genes (corrected p-value < 0.001) by means of Broad Institute GSEA. […] The data that support this study have been deposited in NCBI´s Gene Expression Omnibus and are accessible through GEO series accession number GSE143887.

## O=C(CCCCCCC(=O)Nc1ccccc1)NO [SAHA, Suberoylanilide hydroxamic acid]
Transcript TC0700011518.hg.1
  logFC GTF2IRD2: -2.067
Transcript TC0700013363.hg.1
  logFC GBAS: -1.318
Transcript TC0700013468.hg.1
  logFC NDUFB2: -1.3
Transcript TC0800006692.hg.1
  logFC MSRA: -1.45
Transcript TC0800009239.hg.1
  logFC CYC1: -1.06
Transcript TC0800009970.hg.1
  logFC PBK: -1.706
Transcript TC0800010252.hg.1
  logFC ANK1: -2.257
Transcript TC0800010553.hg.1
  logFC NSMAF: -1.838
Transcript TC0800010708.hg.1
  logFC CPA6: -2.501
Transcript TC0800011646.hg.1
  logFC HAS2: -1.946
Transcript TC0900007494.hg.1
  logFC FXN: -0.9868
Transcript TC0900008716.hg.1
  logFC NEK6: -1.139
Transcript TC0900009948.hg.1
  logFC ARHGEF39: -1.156
Transcript TC0900011200.hg.1
  logFC KIAA0368: -1.9364
Transcript TC0900011220.hg.1
  logFC SUSD1: -2.309
Transcript TC0900011388.hg.1
  logFC PHF19: -2.061
Transcript TC0900011626.hg.1
  logFC CIZ1: -1.331
Transcript TC0900011709.hg.1
  logFC TOR1A: -1.605
Transcript TC0900011864.hg.1
  logFC VAV2: -1.105
Transcript TC1000007986.hg.1
  logFC ANAPC16: -1.273
Transcript TC1000008955.hg.1
  logFC PLEKHS1: -2.168
Transcript TC1000009844.hg.1
  logFC SEPHS1: -1.411
Transcript TC1000010256.hg.1
  logFC EPC1: -1.207
Transcript TC1000010843.hg.1
  logFC PBLD: -1.5
Transcript TC1000010990.hg.1
  logFC DNAJB12: -1.539
Transcript TC1000011993.hg.1
  logFC PRDX3: -0.8845
Transcript TC1000012235.hg.1
  logFC MKI67: -1.335
Transcript TC1000012496.hg.1
  logFC AS3MT: -1.5939
Transcript TC1100006879.hg.1
  logFC PARVA: -1.499
Transcript TC1100008236.hg.1
  logFC CCND1: -0.9478
Transcript TC1100008514.hg.1
  logFC TSKU: -1.319
Transcript TC1100009561.hg.1
  logFC NTM: -2.198
Transcript TC1100009657.hg.1
  logFC IFITM3: -1.487
Transcript TC1100011259.hg.1
  logFC FOSL1: -2.603
Transcript TC1100012957.hg.1
  logFC TRIM22: -3.047
Transcript TC1100013111.hg.1
  logFC CHEK1: -0.9424
Transcript TC1100013184.hg.1
  logFC CDCA5: -1.4587
Transcript TC1100013192.hg.1
  logFC CLCF1: -1.898
Transcript TC1200006520.hg.1
  logFC TSPAN9: -1.358
Transcript TC1200006561.hg.1
  logFC RAD51AP1: -1.95
Transcript TC1200006656.hg.1
  logFC C12orf57: -1.605
Transcript TC1200007707.hg.1
  logFC ESPL1: -1.687
Transcript TC1200007822.hg.1
  logFC IKZF4: -1.324
Transcript TC1200009621.hg.1
  logFC FOXM1: -2.01
Transcript TC1200009759.hg.1
  logFC CDCA3: -2.054
Transcript TC1200009834.hg.1
  logFC MFAP5: -1.349
Transcript TC1200009919.hg.1
  logFC TAS2R10: -2.012
Transcript TC1200010633.hg.1
  logFC MCRS1: -1.188
Transcript TC1200011873.hg.1
  logFC MMAB: -1.164
Transcript TC1200012105.hg.1
  logFC WSB2: -1.343
Transcript TC1200012143.hg.1
  logFC CIT: -1.292
Transcript TC1200012584.hg.1
  logFC TAPBPL: -1.336
Transcript TC1200012755.hg.1
  logFC PRR4: -1.713
Transcript TC1200012808.hg.1
  logFC R3HDM2: -1.233
Transcript TC1300007167.hg.1
  logFC PHF11: -1.841
Transcript TC1300007870.hg.1
  logFC ITGBL1: -1.539
Transcript TC1300009088.hg.1
  logFC DIAPH3: -1.66
Transcript TC1300009924.hg.1
  logFC GAS6: -1.149
Transcript TC1400007404.hg.1
  logFC RHOJ: -2.1714
Transcript TC1400008476.hg.1
  logFC BTBD6: -1.003
Transcript TC1400010715.hg.1
  logFC AJUBA: -1.776
Transcript TC1500006785.hg.1
  logFC ARHGAP11B: -1.512
Transcript TC1500007392.hg.1
  logFC CCNB2: -2.179
Transcript TC1500007510.hg.1
  logFC TPM1: -1.243
Transcript TC1500007699.hg.1
  logFC KIF23: -1.664
Transcript TC1500008341.hg.1
  logFC MAN2A2: -1.396
Transcript TC1500009830.hg.1
  logFC LCTL: -1.502
Transcript TC1500010463.hg.1
  logFC PRC1: -1.211
Transcript TC1500010707.hg.1
  logFC ARHGAP11B: -1.7076
Transcript TC1600007113.hg.1
  logFC C16orf62: -1.881
Transcript TC1600007235.hg.1
  logFC PLK1: -1.599
Transcript TC1600007992.hg.1
  logFC ARL2BP: -1.083
Transcript TC1600010168.hg.1
  logFC SHCBP1: -1.56
Transcript TC1700006709.hg.1
  logFC XAF1: -1.919
Transcript TC1700006758.hg.1
  logFC MPDU1: -1.716
Transcript TC1700007454.hg.1
  logFC GOSR1: -1.325
Transcript TC1700007557.hg.1
  logFC CCL2: -1.8857
Transcript TC1700008263.hg.1
  logFC ABCC3: -2.846
Transcript TC1700009043.hg.1
  logFC BIRC5: -1.565
Transcript TC1700009679.hg.1
  logFC AURKB: -1.67
Transcript TC1700009888.hg.1
  logFC CENPV: -1.862
Transcript TC1700010599.hg.1
  logFC MED24: -1.405
Transcript TC1700010618.hg.1
  logFC TOP2A: -1.269
Transcript TC1700010841.hg.1
  logFC CCDC43: -0.9856
Transcript TC1700012078.hg.1
  logFC ALYREF: -1.381
Transcript TC1700012380.hg.1
  logFC SPAG5: -2.042
Transcript TC1800009245.hg.1
  logFC SERPINB8: -1.496
Transcript TC1900006628.hg.1
  logFC NFIC: -1.238
Transcript TC1900007208.hg.1
  logFC SYDE1: -1.288
